According to PubChem BioAssay AID336 (DTP/NCI, 2004):
Several values for one entry are separate records, joined by “and”; a condition that tells them apart may be missing. Equal values may be shown once. Inconclusive results and toxic doses are left out.

Tested on: BDF1 mice, P388/VCR leukemia ip, median survival T/C
Test: NCI In Vivo Anticancer Drug Screen. Data for tumor model P388 Leukemia resistant to Vincristine; NSC 67574 (intraperitoneal) in B6D2F1 (BDF1) mice
Conditions: endpoint: median survival time, higher = longer survival
Procedure: The antitumor activity of compounds was measured in mice bearing transplantable tumors. Survival or tumor size were measured and the results are expressed as the measurement made in the treated group (T) divided by the measurement made in the vehicle treated control group (C). The tumor model used in this assay is P388 Leukemia resistant to Vincristine; NSC 67574 (intraperitoneal) in B6D2F1 (BDF1) mice

[1] = dose: 20.0 mg/kg/injection, schedule: Q01DX010 (ip), vehicle: saline
[2] = dose: 40.0 mg/kg/injection, schedule: Q01DX010 (ip), vehicle: saline

## COc1cccc2c1C(=O)c1c(O)c3c(c(O)c1C2=O)C[C@@](O)(C(=O)CO)C[C@@H]3OC1CC(N)C(O)C(C)O1 (stereo partly specified)
dose: 1.44 mg/kg/injection, schedule: Q04DX003 (ip), vehicle: saline
  T/C: 172 % of control
dose: 1.44 mg/kg/injection, schedule: Q04DX003 (ip), vehicle: water
  T/C: 168 % of control
dose: 2.4 mg/kg/injection, schedule: Q04DX003 (ip), vehicle: saline
  T/C: 188 % of control
dose: 2.4 mg/kg/injection, schedule: Q04DX003 (ip), vehicle: water
  T/C: 159 % of control and 200 % of control
dose: 4.0 mg/kg/injection, schedule: Q04DX003 (ip), vehicle: saline
  T/C: 169 % of control
dose: 4.0 mg/kg/injection, schedule: Q04DX003 (ip), vehicle: water
  T/C: 155 % of control and 168 % of control
dose: 6.67 mg/kg/injection, schedule: Q04DX003 (ip), vehicle: saline
  T/C: 182 % of control
dose: 6.67 mg/kg/injection, schedule: Q04DX003 (ip), vehicle: water
  T/C: 100 % of control

## O=C(Nc1cccc(C(=O)Nc2ccc(C3=NCCN3)cc2)c1)c1ccc(C2=NCCN2)cc1
dose: 54.0 mg/kg/injection, schedule: Q01DX010 (ip), vehicle: saline
  T/C: 104 % of control

## Nc1nncs1
dose: 64.8 mg/kg/injection, schedule: Q04DX003 (ip), vehicle: saline
  T/C: 101 % of control
dose: 180.0 mg/kg/injection, schedule: Q04DX003 (ip), vehicle: saline
  T/C: 151 % of control

## O=c1[nH]c(=O)n(C2CC(O)C(CO)O2)cc1F (stereo unspecified)
[1]
  T/C: 112 % of control
[2]
  T/C: 154 % of control

## CC[C@@]1(O)C[C@H](OC2CC(N(C)C)C(OC3CC(O)C(OC4CCC(=O)C(C)O4)C(C)O3)C(C)O2)c2c(cc3c(c2O)C(=O)c2c(O)ccc(O)c2C3=O)[C@H]1C(=O)OC (stereo partly specified)
dose: 2.88 mg/kg/injection, schedule: Q04DX003 (ip), vehicle: water
  T/C: 118 % of control
dose: 4.8 mg/kg/injection, schedule: Q04DX003 (ip), vehicle: water
  T/C: 117 % of control
dose: 8.0 mg/kg/injection, schedule: Q04DX003 (ip), vehicle: water
  T/C: 95 % of control

## O=C(Nc1ccc(C(=O)Nc2ccc(C3=NCCCN3)cc2)cc1)Nc1ccc(C2=NCCCN2)cc1
dose: 1.88 mg/kg/injection, schedule: Q01DX010 (ip), vehicle: saline
  T/C: 116 % of control and 123 % of control
dose: 3.75 mg/kg/injection, schedule: Q01DX010 (ip), vehicle: saline
  T/C: 116 % of control and 123 % of control
dose: 15.0 mg/kg/injection, schedule: Q01DX010 (ip), vehicle: saline
  T/C: 123 % of control

## CC1CCOS(=O)O1 (stereo unspecified)
dose: 10.0 mg/kg/injection, schedule: Q01DX010 (ip), vehicle: saline
  T/C: 96 % of control
[1]
  T/C: 103 % of control
[2]
  T/C: 103 % of control

## O[C@H](CN1CC1)[C@@H](O)CN1CC1
dose: 0.13 mg/kg/injection, schedule: Q01DX010 (ip), vehicle: saline
  T/C: 180 % of control and 200 % of control
dose: 0.25 mg/kg/injection, schedule: Q01DX010 (ip), vehicle: saline
  T/C: 150 % of control and 241 % of control

## CCOC(N)=O
dose: 500.0 mg/kg/injection, schedule: Q01DX010 (ip), vehicle: saline
  T/C: 107 % of control and 119 % of control

## CC(CN1CC(=O)NC(=O)C1)N1CC(=O)NC(=O)C1 (stereo unspecified)
dose: 108.0 mg/kg/injection, schedule: Q04DX003 (ip), vehicle: Klucel (hydroxypropylcellulose) (HPC)
  T/C: 120 % of control
dose: 240.0 mg/kg/injection, schedule: Q04DX003 (ip), vehicle: Klucel (hydroxypropylcellulose) (HPC)
  T/C: 151 % of control
dose: 300.0 mg/kg/injection, schedule: Q04DX003 (ip), vehicle: alkali diluted with saline
  T/C: 174 % of control
dose: 400.0 mg/kg/injection, schedule: Q04DX003 (ip), vehicle: Klucel (hydroxypropylcellulose) (HPC)
  T/C: 180 % of control
dose: 500.0 mg/kg/injection, schedule: Q04DX003 (ip), vehicle: alkali diluted with saline
  T/C: 109 % of control

## CC(=O)O[C@]1(C(C)=O)CC[C@H]2[C@@H]3C[C@H](C)C4=CC(=O)C=C[C@]4(C)[C@@]3(F)[C@@H](O)C[C@@]21C
dose: 12.5 mg/kg/injection, schedule: Q01DX010 (sc), vehicle: steriod suspending solution
  T/C: 103 % of control
dose: 25.0 mg/kg/injection, schedule: Q01DX010 (sc), vehicle: steriod suspending solution
  T/C: 116 % of control
dose: 50.0 mg/kg/injection, schedule: Q01DX010 (sc), vehicle: steriod suspending solution
  T/C: 110 % of control
dose: 100.0 mg/kg/injection, schedule: Q01DX010 (sc), vehicle: steriod suspending solution
  T/C: 113 % of control

## COC(=O)[C@@]12OC[C@]34[C@H]([C@@H](O)[C@@H]1O)[C@@]1(C)CC(=O)C(O)=C(C)[C@@H]1C[C@H]3OC(=O)[C@H](OC(=O)/C=C(\C)C(C)C)[C@@H]24
dose: 389.0 micrograms/kg/injection, schedule: Q01DX004 (ip), vehicle: saline + alcohol
  T/C: 103 % of control
dose: 432.0 micrograms/kg/injection, schedule: Q01DX009 (ip), vehicle: saline + alcohol
  T/C: 98 % of control
dose: 648.0 micrograms/kg/injection, schedule: Q01DX004 (ip), vehicle: saline + alcohol
  T/C: 109 % of control
dose: 720.0 micrograms/kg/injection, schedule: Q01DX009 (ip), vehicle: saline + alcohol
  T/C: 100 % of control

## O=C(Nc1ccc(C2=NCCN2)cc1)c1cccc(C(=O)Nc2ccc(C3=NCCN3)cc2)c1
dose: 8.0 mg/kg/injection, schedule: Q01DX010 (ip), vehicle: saline
  T/C: 118 % of control
dose: 16.0 mg/kg/injection, schedule: Q01DX010 (ip), vehicle: saline
  T/C: 111 % of control
dose: 64.0 mg/kg/injection, schedule: Q01DX010 (ip), vehicle: saline
  T/C: 158 % of control

## O=c1cnn(C2OC(CO)C(O)C2O)c(=O)[nH]1 (stereo unspecified)
dose: 100.0 mg/kg/injection, schedule: Q01DX010 (ip), vehicle: saline
  T/C: 107 % of control
dose: 200.0 mg/kg/injection, schedule: Q01DX010 (ip), vehicle: saline
  T/C: 114 % of control
dose: 400.0 mg/kg/injection, schedule: Q01DX010 (ip), vehicle: saline
  T/C: 115 % of control and 121 % of control
dose: 800.0 mg/kg/injection, schedule: Q01DX010 (ip), vehicle: saline
  T/C: 123 % of control
dose: 1600.0 mg/kg/injection, schedule: Q01DX010 (ip), vehicle: saline
  T/C: 88 % of control

## CCC1(O)CC2CN(CCc3c([nH]c4ccccc34)C(C(=O)OC)(c3cc4c(cc3OC)N(C)C3C(O)(C(=O)NCCSSCCNC(=O)C5(O)C(O)C6(CC)C=CCN7CCC8(c9cc(C%10(C(=O)OC)CC%11CN(CCc%12c%10[nH]c%10ccccc%12%10)CC(O)(CC)C%11)c(OC)cc9N(C)C58)C76)C(O)C5(CC)C=CCN6CCC43C65)C2)C1 (stereo unspecified)
dose: 250.0 micrograms/kg/injection, schedule: Q04DX003 (ip), vehicle: saline
  T/C: 117 % of control
dose: 648.0 micrograms/kg/injection, schedule: Q04DX003 (ip), vehicle: saline
  T/C: 154 % of control
dose: 1000.0 micrograms/kg/injection, schedule: Q04DX003 (ip), vehicle: saline
  T/C: 161 % of control
dose: 2000.0 micrograms/kg/injection, schedule: Q04DX003 (ip), vehicle: saline
  T/C: 164 % of control
dose: 3000.0 micrograms/kg/injection, schedule: Q04DX003 (ip), vehicle: saline
  T/C: 90 % of control

## CC[C@H]1CN2CCc3cc(OC)c(OC)cc3[C@@H]2C[C@@H]1C[C@@H]1c2cc(OC)c(OC)cc2CCN1CCN(CCCl)CCCl
dose: 6.48 mg/kg/injection, schedule: Q04DX003 (ip), vehicle: saline with Tween-80
  T/C: 107 % of control
dose: 10.8 mg/kg/injection, schedule: Q04DX003 (ip), vehicle: saline with Tween-80
  T/C: 111 % of control

## CS(=O)(=O)OCCN(CCOS(C)(=O)=O)c1ccc(N=O)cc1
dose: 0.5 mg/kg/injection, schedule: Q01DX010 (ip), vehicle: saline
  T/C: 150 % of control
dose: 1.0 mg/kg/injection, schedule: Q01DX010 (ip), vehicle: saline
  T/C: 150 % of control

## N#[N+]c1cnc([O-])[nH]c1=O
dose: 5.0 mg/kg/injection, schedule: Q01DX010 (ip), vehicle: saline
  T/C: 156 % of control

## C[C@H]1C(=O)O[C@@H]2CCN3CC=C(COC(=O)[C@](C)(O)[C@@]1(C)O)[C@H]23
dose: 1.56 mg/kg/injection, schedule: Q01DX010 (ip), vehicle: saline
  T/C: 108 % of control
dose: 3.13 mg/kg/injection, schedule: Q01DX010 (ip), vehicle: saline
  T/C: 112 % of control
dose: 6.25 mg/kg/injection, schedule: Q01DX010 (ip), vehicle: saline
  T/C: 91 % of control
dose: 12.5 mg/kg/injection, schedule: Q01DX010 (ip), vehicle: saline
  T/C: 100 % of control

## O=C(Nc1ccc(NC(=O)Nc2ccc(C3=NCCN3)cc2)cc1)Nc1ccc(C2=NCCN2)cc1
dose: 250.0 mg/kg/injection, schedule: Q01DX010 (ip), vehicle: saline
  T/C: 150 % of control
dose: 375.0 mg/kg/injection, schedule: Q01DX010 (ip), vehicle: saline
  T/C: 154 % of control

## COc1cc2c[n+](C)c3c4cc5c(cc4ccc3c2cc1OC)OCO5
dose: 43.2 mg/kg/injection, schedule: Q04DX003 (ip), vehicle: Klucel (hydroxypropylcellulose) (HPC)
  T/C: 106 % of control
dose: 72.0 mg/kg/injection, schedule: Q04DX003 (ip), vehicle: Klucel (hydroxypropylcellulose) (HPC)
  T/C: 108 % of control
dose: 120.0 mg/kg/injection, schedule: Q04DX003 (ip), vehicle: Klucel (hydroxypropylcellulose) (HPC)
  T/C: 106 % of control
dose: 200.0 mg/kg/injection, schedule: Q04DX003 (ip), vehicle: Klucel (hydroxypropylcellulose) (HPC)
  T/C: 109 % of control
